What was measured:
Assay type in all cases: cell-based
AHR [1] = molecular target: T1, AHR (Homo sapiens, UniProt P35869); experiment: In vitro assay 1: antagonism in human cell line (transactivation assay, U87 cells prestimulated with kynurenic acid, DRE firefly luciferase reporter); design: host or cells: U87 glioblastoma cells, stably transfected with DRE firefly luciferase and renilla reporter constructs; details: 150 uM kynurenic acid, 20 hours, read-out: Assay 1: AHR-luc Hum Antagonism IC50
T1 sequence (P35869 11-848): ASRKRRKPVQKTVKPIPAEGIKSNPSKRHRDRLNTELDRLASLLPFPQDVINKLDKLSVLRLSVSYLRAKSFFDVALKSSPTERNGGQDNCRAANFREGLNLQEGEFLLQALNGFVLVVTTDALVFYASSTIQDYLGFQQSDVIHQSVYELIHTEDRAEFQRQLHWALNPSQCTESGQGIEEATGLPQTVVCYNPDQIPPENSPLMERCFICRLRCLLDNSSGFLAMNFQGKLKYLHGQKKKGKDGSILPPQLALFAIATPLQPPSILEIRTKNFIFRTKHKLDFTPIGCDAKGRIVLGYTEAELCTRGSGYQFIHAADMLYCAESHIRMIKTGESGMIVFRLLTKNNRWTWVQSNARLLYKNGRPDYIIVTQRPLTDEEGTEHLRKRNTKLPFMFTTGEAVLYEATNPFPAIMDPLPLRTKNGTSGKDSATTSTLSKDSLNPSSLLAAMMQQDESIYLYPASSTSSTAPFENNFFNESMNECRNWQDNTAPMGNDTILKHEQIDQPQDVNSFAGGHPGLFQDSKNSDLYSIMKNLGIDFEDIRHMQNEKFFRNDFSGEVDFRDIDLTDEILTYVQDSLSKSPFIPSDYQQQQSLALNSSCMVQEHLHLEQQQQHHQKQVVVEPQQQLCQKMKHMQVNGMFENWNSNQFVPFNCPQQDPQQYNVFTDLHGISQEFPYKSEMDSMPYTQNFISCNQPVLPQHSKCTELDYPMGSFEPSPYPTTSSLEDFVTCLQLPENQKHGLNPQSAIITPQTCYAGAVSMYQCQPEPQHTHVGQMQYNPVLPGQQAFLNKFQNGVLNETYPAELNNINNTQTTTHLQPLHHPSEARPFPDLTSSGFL
Outline: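 Antagonism measured after kynurenic acid prestimulation in U87 cells that express AHR endogenously and stably harbor a firefly luciferase gene under DRE control plus a constitutive renilla construct. Positive and negative controls served for normalization.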

AHR [2] = molecular target: T1, AHR; experiment: In vitro assay 3: AHR-regulated CYP1A1 expression in human cell line (U937, qPCR, KA stimulation); details: U937 cells, 200 uM KA, 6 hours, CYP1A1 expression by qPCR; read-out: Assay 3: Hum CYP1A1 Antagonism IC50
Procedure: In Vitro Assay 3: AHR-Regulated CYP1A1 Expression in Human Cell Line
To assess the AHR inhibitory activity of the substances described in this application, the ability thereof to antagonise ligand-induced AHR gene regulation in a dose-dependent manner was quantified. For this purpose, quantitative PCR analysis was used to determine expression of the AHR-regulated gene CYP1A1 in a human monocytic U937 cell line upon stimulation with 200 uM KA in the presence and absence of AHR inhibitor. […] CYP1A1 expression was induced with 200 uM KA (positive control) in the presence or absence of the substances for 6 hours. Human U937 cells were typically incubated with eight different concentrations of the substances (1 nM, 3 nM, 10 nM, 30 nM, 100 nM, 300 nM, 1 uM and 3 uM) and analyzed in duplicate on the same microtitre plate. […] Unstimulated cells were used as the negative control. Taqman probes for human CYP1A1 (Hs01054797_g1) and human HPRT (Hs02800695_m1) were used to analyze fold expression of CYP1A1 of HPRT. Quantitation was performed on a Taqman SDS7900HT.

AHR [3] = molecular target: T1, AHR; experiment: In vitro assay 2: agonism in human cell line (transactivation assay, U87 cells, DRE firefly luciferase reporter); design: host or cells: U87 glioblastoma cells, stably transfected with DRE firefly luciferase and renilla reporter constructs; details: no kynurenic acid, 20 hours, read-out: Assay 2: AHR-luc Hum Agonism IC50
Outline: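 Agonist readout: DRE firefly luciferase, with constitutive renilla reporter, in stably transfected U87 cells expressing AHR endogenously. Normalization used positive control (300 uM kynurenic acid) and negative control.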

Structure (SMILES) | IC50 (AHR [1]) | IC50 (AHR [2]) | IC50 (AHR [3])
C[C@@H](NC(=O)c1cc(-c2ccc(C(F)(F)F)cc2)nn(-c2cccnc2)c1=O)C(C)(C)O [Example 234, N-[(2R)-3-Hydroxy-3-methylbutan-2-yl]-3-oxo-2-(pyridin-3-yl)-6-[4-(trifluoromethyl)phenyl]-2,3-dihydropyridazine-4-carboxamide] | 8.42 nM | 9.6 nM | > 20000 nM
CC(C)(O)CNC(=O)c1cc(-c2ccc(C(F)(F)F)cc2)nn(-c2cccnc2)c1=O [Example 115, N-(2-Hydroxy-2-methylpropyl)-3-oxo-2-(pyridin-3-yl)-6-[4-(trifluoromethyl)phenyl]-2,3-dihydropyridazine-4-carboxamide] | 2.63 nM | 10.9 nM | > 20000 nM
C[C@@H](CO)NC(=O)c1cc(-c2ccc(C(F)(F)F)cc2)nn(-c2cccnc2)c1=O [Example 119, N-[(2S)-1-Hydroxypropan-2-yl]-3-oxo-2-(pyridin-3-yl)-6-[4-(trifluoromethyl)phenyl]-2,3-dihydropyridazine-4-carboxamide] | 3.06 nM | 5.72 nM | > 20000 nM
O=C(NC(CO)C1CC1)c1cc(-c2ccc(Cl)cc2)nn(-c2cccnc2)c1=O (racemic) [Example 77, 6-(4-Chlorophenyl)-N-[(1RS)-1-cyclopropyl-2-hydroxyethyl]-3-oxo-2-(pyridin-3-yl)-2,3-dihydropyridazine-4-carboxamide] | 11.2 nM | 8.7 nM | > 20000 nM
O=C(N[C@H](CO)C(F)(F)F)c1cc(-c2ccc(C(F)(F)F)cc2)nn(-c2cccnc2)c1=O [Example 112, 3-Oxo-2-(pyridin-3-yl)-N-[(2R)-1,1,1-trifluoro-3-hydroxypropan-2-yl]-6-[4-(trifluoromethyl)phenyl]-2,3-dihydropyridazine-4-carboxamide] | 1.15 nM | 0.905 nM | > 20000 nM
O=C(NCC(O)C(F)F)c1cc(-c2ccc(C(F)(F)F)cc2)nn(-c2cccnc2)c1=O (single isomer, unassigned; (-)) [Example 230, (−)-N-(3,3-Difluoro-2-hydroxypropyl)-3-oxo-2-(pyridin-3-yl)-6-[4-(trifluoromethyl)phenyl]-2,3-dihydropyridazine-4-carboxamide] | 7.57 nM | 10.4 nM | > 20000 nM
O=C(NC(CO)C1CC1)c1cc(-c2ccc(Cl)cc2)nn(-c2cccnc2)c1=O (single isomer, unassigned; (-)) [Example 92, (−)-6-(4-Chlorophenyl)-N-(1-cyclopropyl-2-hydroxyethyl)-3-oxo-2-(pyridin-3-yl)-2,3-dihydropyridazine-4-carboxamide] | 19 nM | 2.76 nM | > 20000 nM
Cc1cc(-n2nc(-c3ccc(Cl)cc3)cc(C(=O)N[C@@H](C)CO)c2=O)[nH]n1 [Example 193, 6-(4-Chlorophenyl)-N-[(2S)-1-hydroxypropan-2-yl]-2-(3-methyl-1H-pyrazol-5-yl)-3-oxo-2,3-dihydropyridazine-4-carboxamide] | 352 nM | 3.03 nM | > 20000 nM
C[C@@H](CO)NC(=O)c1cc(-c2ccc(C(F)F)cc2)nn(-c2cnn(C)c2)c1=O [Example 58, 6-[4-(Difluoromethyl)phenyl]-N-[(2S)-1-hydroxypropan-2-yl]-2-(1-methyl-1H-pyrazol-4-yl)-3-oxo-2,3-dihydropyridazine-4-carboxamide] | 18.6 nM | 10.8 nM | > 20000 nM
O=C(N[C@@H]1CCC[C@H]1O)c1cc(-c2ccc(C(F)(F)F)cc2)nn(-c2cccnc2)c1=O [Example 104, N-[(1R,2R)-2-Hydroxycyclopentyl]-3-oxo-2-(pyridin-3-yl)-6-[4-(trifluoromethyl)phenyl]-2,3-dihydropyridazine-4-carboxamide] | 20.2 nM | 14.8 nM | > 20000 nM
Cc1ccc(-c2cc(C(=O)NC(CO)C(C)C)c(=O)n(-c3cnn(C)c3)n2)cc1 (stereo not drawn) [Example 1, N-(1-Hydroxy-3-methylbutan-2-yl)-6-(4-methylphenyl)-2-(1-methyl-1H-pyrazol-4-yl)-3-oxo-2,3-dihydropyridazine-4-carboxamide] | 7.38 nM | 4.3 nM | > 20000 nM
O=C(N[C@H](CO)CF)c1cc(-c2ccc(Cl)cc2)nn(-c2cccnc2)c1=O [Example 93, (+)-6-(4-Chlorophenyl)-N-[(2R)-1-fluoro-3-hydroxypropan-2-yl]-3-oxo-2-(pyridin-3-yl)-2,3-dihydropyridazine-4-carboxamide] | 24.8 nM | 4.32 nM | > 20000 nM
O=C(N[C@@H]1CCC[C@@H]1O)c1cc(-c2ccc(C(F)(F)F)cc2)nn(-c2cccnc2)c1=O [Example 103, N-[(1R,2S)-2-Hydroxycyclopentyl]-3-oxo-2-(pyridin-3-yl)-6-[4-(trifluoromethyl)phenyl]-2,3-dihydropyridazine-4-carboxamide] | 13.3 nM | 24.5 nM | > 20000 nM
Cn1cc(-n2nc(-c3ccc(C(F)(F)F)cc3)cc(C(=O)N[C@H](CO)CF)c2=O)cn1 [Example 211, N-[(2R)-1-Fluoro-3-hydroxypropan-2-yl]-2-(1-methyl-1H-pyrazol-4-yl)-3-oxo-6-[4-(trifluoromethyl)phenyl]-2,3-dihydropyridazine-4-carboxamide] | 1.62 nM | 2.67 nM | > 20000 nM
O=C(NC[C@H](O)C(F)(F)F)c1cc(-c2ccc(C(F)F)cc2)nn(-c2cccnc2)c1=O [Example 313, 6-[4-(Difluoromethyl)phenyl]-3-oxo-2-(pyridin-3-yl)-N-[(2S)-3,3,3-trifluoro-2-hydroxypropyl]-2,3-dihydropyridazine-4-carboxamide] | 2.63 nM | 3.81 nM | > 20000 nM
C[C@@H](CO)NC(=O)c1cc(-c2ccc(Cl)cc2)nn(-c2cccnc2)c1=O [Example 68, 6-(4-Chlorophenyl)-N-[(2S)-1-hydroxypropan-2-yl]-3-oxo-2-(pyridin-3-yl)-2,3-dihydropyridazine-4-carboxamide] | 24.2 nM | 21.8 nM | > 20000 nM
C[C@@H](CO)NC(=O)c1cc(-c2ccc(C(F)(F)F)cc2)nn(-c2cnn(C)c2)c1=O [Example 39, (+)-N-[(2S)-1-Hydroxypropan-2-yl]-2-(1-methyl-1H-pyrazol-4-yl)-3-oxo-6-[4-(trifluoromethyl)phenyl]-2,3-dihydropyridazine-4-carboxamide] | 2.08 nM | 3.39 nM | > 20000 nM
Cc1ccc(-c2cc(C(=O)NCC(O)C(F)(F)F)c(=O)n(-c3cnn(C)c3)n2)cc1 (stereo not drawn) [Example 10, 6-(4-Methylphenyl)-2-(1-methyl-1H-pyrazol-4-yl)-3-oxo-N-(3,3,3-trifluoro-2-hydroxypropyl)-2,3-dihydropyridazine-4-carboxamide] | 4.25 nM | 10.2 nM | > 20000 nM
Cn1cc(-n2nc(-c3ccc(Cl)cc3)cc(C(=O)N[C@H]3CCC[C@H]3O)c2=O)cn1 [Example 50, 6-(4-Chlorophenyl)-N-[(1S,2R)-2-hydroxycyclopentyl]-2-(1-methyl-1H-pyrazol-4-yl)-3-oxo-2,3-dihydropyridazine-4-carboxamide] | 8.39 nM | 6.74 nM | > 20000 nM

— patent US12522594B2, “2-heteroaryl-3-oxo-2,3-dihydropyridazine-4-carboxamides for the treatment of cancer” (Deutsches Krebsforschungszentrum, priority 2017, dated 2026)
